Data from article PMC9764189 (The Journal of Biological Chemistry, 2022).
Like-named read-outs stand apart in the source and are kept apart here.

Columns and labels:
[1] = target: MR1 (Homo sapiens, UniProt Q95460); assay: biochemical; format: binding; details: for IC50: IC50, 10 nM JYM20, 100 nM MR1-empty, 25 °C, pH 7.5; for Binder category (ligand affinity for MR1): category by IC50
[2] = tested on: C1R.MR1 cells

MR1, sequence (Q95460 23-302 limits assumed): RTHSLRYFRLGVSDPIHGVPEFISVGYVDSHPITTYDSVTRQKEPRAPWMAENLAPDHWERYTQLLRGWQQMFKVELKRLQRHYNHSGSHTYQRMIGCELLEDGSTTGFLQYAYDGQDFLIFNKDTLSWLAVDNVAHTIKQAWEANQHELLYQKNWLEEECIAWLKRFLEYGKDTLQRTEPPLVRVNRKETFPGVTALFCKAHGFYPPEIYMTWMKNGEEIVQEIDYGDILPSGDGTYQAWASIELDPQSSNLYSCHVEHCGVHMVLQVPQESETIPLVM
MR1, sequence (P61769 21-119 partner): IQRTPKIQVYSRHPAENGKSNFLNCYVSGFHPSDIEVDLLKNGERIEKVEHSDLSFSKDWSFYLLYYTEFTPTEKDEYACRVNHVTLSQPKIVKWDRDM

Structure (SMILES)	IC50 [1] [µM]	Binder category (ligand affinity for MR1) [1]	Upregulation of surface MR1 ([2]; 3 h incubation)	Concentration at which MR1 was upregulated significantly ([2]; 3 h incubation, versus DMSO) [µM]	Upregulation of surface MR1 ([2]; 16 h incubation)
COc1cc(C=O)ccc1O [Vanillin, vanillin]	325	weak (weak (IC50 > 100 μM))	upregulated	10	modest increase
COc1ccc(O)c(C=O)c1 [HMB, 2-hydroxy-5-methoxybenzaldehyde]	775	weak (weak (IC50 > 100 μM))			
CCOc1cc(C=O)ccc1O [Ethylvanillin, ethylvanillin]	325		upregulated		no noticeable upregulation
O=C(O)CCNC(=O)c1cc(=O)[nH]c(=O)[nH]1 [DB28, 3-[(2,6-dioxo-1,2,3,6-tetrahydropyrimidin-4-yl)formamido]propanoic acid]	20				
O=C(O)Cc1ccccc1Nc1c(Cl)cccc1Cl [DCF, diclofenac]	2600				
O=Cc1cccc(C(=O)O)c1O [3-F-SA, 3-formylsalicylic acid]	0.563				
